Experimental data taken from the supplement of paper PMC10331698.
± gives the standard deviation of the averaged measurements.

Legend:
Assay in all cases: level (log10 ratio to DMSO vehicle control); higher = higher biomarker level / cell amount than vehicle control
[1] = compound: OCCC(F)(F)C(F)(F)C(F)(F)C(F)(F)F [4:2 Fluorotelomer alcohol] (in DMSO)
Method: (§1)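 BioMAP Diversity Plus panel of 12 human primary cell co-culture systems (3C, 4H, LPS, SAg, BT, BF4T, BE3C, CASM3C, HDF3CGF, KF3CT, MyoF, Mphg). Compounds were added 1 h before stimulation and left for 24 h (MyoF 48 h; BT 72 h for soluble read-outs or 6 d for IgG). Biomarkers were read by ELISA, cytotoxicity by SRB, PBMC viability and proliferation by Alamar Blue. Each well value was divided by the mean of 8 DMSO control wells on the same plate and log10 transformed; duplicate blinded samples were tested at 4 concentrations.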

[2] = compound: O=C(O)C(F)(OC(F)(F)C(F)(OC(F)(F)C(F)(OC(F)(F)C(F)(F)C(F)(F)F)C(F)(F)F)C(F)(F)F)C(F)(F)F [Perfluoro-(2,5,8-trimethyl-3,6,9-trioxadodecanoic)acid] (in DMSO)
Method: as §1

Perfluorononanoic acid = compound: O=C(O)C(F)(F)C(F)(F)C(F)(F)C(F)(F)C(F)(F)C(F)(F)C(F)(F)C(F)(F)F [Perfluorononanoic acid] (in DMSO)
Method: as §1

[3] = compound: O=S(=O)(O)CCC(F)(F)C(F)(F)C(F)(F)C(F)(F)C(F)(F)C(F)(F)C(F)(F)C(F)(F)F [8:2 Fluorotelomer sulfonic acid] (in DMSO)
Method: as §1

[4] = compound: O=S(=O)(O)C(F)(F)C(F)(F)C(F)(F)C(F)(F)C(F)(F)C(F)(F)C(F)(F)F [Perfluoroheptanesulfonic acid] (in DMSO)
Method: as §1

Perfluoroundecanoic acid = compound: O=C(O)C(F)(F)C(F)(F)C(F)(F)C(F)(F)C(F)(F)C(F)(F)C(F)(F)C(F)(F)C(F)(F)C(F)(F)F [Perfluoroundecanoic acid] (in DMSO); details: 6700 nM
Method: as §1

[5] = compound: C=C(C)C(=O)OCCC(F)(F)C(F)(F)C(F)(F)C(F)(F)C(F)(F)C(F)(F)C(F)(F)C(F)(F)F [8:2 Fluorotelomer methacrylate] (in DMSO)
Method: as §1

Row | Test System | level (log10) ([1]; 6700 nM) | level (log10) ([1]; 20000 nM) | level (log10) ([1]; 60000 nM) | level (log10) ([2]; 1100 nM) | level (log10) ([2]; 3300 nM) | level (log10) ([2]; 10000 nM) | level (log10) (Perfluorononanoic acid; 6700 nM) | level (log10) (Perfluorononanoic acid; 20000 nM) | level (log10) ([3]; 6700 nM) | level (log10) ([3]; 20000 nM) | level (log10) ([3]; 60000 nM) | level (log10) ([4]; 1500 nM) | level (log10) ([4]; 4400 nM) | level (log10) ([4]; 13000 nM) | level (log10) ([4]; 40000 nM) | level (log10) (Perfluoroundecanoic acid) | level (log10) ([5]; 6700 nM) | level (log10) ([5]; 20000 nM)
1 | lMphg:CXCL8/IL-8 | 0.003 | 0.0065 ± 0.033 | 0.0275 ± 0.035 | 0.0035 ± 0.04 | 0.005 ± 0.02 | 0.0375 ± 0.033 | 0.093 ± 0.03 | 0.186 ± 0.06 | 0.001 ± 0.0085 | 0.022 ± 0.013 | 0.0775 ± 0.0035 | -0.001 ± 0.038 | -0.0165 ± 0.0078 | -0.018 ± 0.023 | 0.074 ± 0.069 | 0.01 ± 0.013 | 0.0355 ± 0.023 | 0.085 ± 0.016
2 | lMphg:IL-1alpha | -0.0295 ± 0.013 | -0.0105 ± 0.005 | 0.0075 ± 0.028 | -0.0225 ± 0.021 | -0.026 ± 0.016 | 0.0045 ± 0.0078 | -0.017 ± 0.017 | 0.0495 ± 0.0035 | -0.019 ± 0.014 | -0.011 ± 0.028 | -0.035 ± 0.05 | 0.0075 ± 0.036 | -0.0045 ± 0.028 | 0 ± 0.042 | 0.073 ± 0.044 | 0.022 ± 0.045 | -0.007 ± 0.028 | 0.0165 ± 0.073
3 | lMphg:M-CSF | -0.021 ± 0.017 | -0.003 ± 0.018 | -0.0025 ± 0.039 | -0.0095 ± 0.00071 | -0.0065 ± 0.022 | 0.0145 ± 0.021 | -0.0215 ± 0.0064 | -0.006 ± 0.031 | -0.0075 ± 0.033 | -0.014 ± 0.013 | 0.012 | -0.0065 ± 0.023 | -0.01 ± 0.037 | -0.0285 ± 0.039 | -0.0285 ± 0.0035 | 0.016 ± 0.02 | -0.013 ± 0.018 | -0.0365 ± 0.022
4 | lMphg:SRB | 0.001 ± 0.0099 | 0.0015 ± 0.0035 | 0.004 ± 0.0071 | -0.005 | -0.0115 ± 0.0092 | -0.005 ± 0.0042 | 0.008 ± 0.0042 | 0.0105 ± 0.021 | -0.006 ± 0.02 | -0.013 ± 0.017 | -0.029 ± 0.0057 | -0.01 ± 0.013 | -0.0055 ± 0.011 | 0.0015 ± 0.0035 | 0.003 ± 0.0057 | -0.001 ± 0.011 | -0.0035 ± 0.0035 | -0.0055 ± 0.0064
5 | lMphg:SRB-Mphg | -0.007 ± 0.03 | -0.004 ± 0.018 | 0.016 ± 0.017 | -0.0035 ± 0.00071 | -0.0135 ± 0.0092 | 0.014 ± 0.014 | -0.0205 ± 0.035 | -0.062 ± 0.081 | 0.003 ± 0.0028 | -0.012 ± 0.014 | -0.027 ± 0.013 | -0.0005 ± 0.016 | -0.0025 ± 0.036 | 0.002 ± 0.0099 | -0.0005 ± 0.036 | -0.019 ± 0.016 | 0.0085 ± 0.011 | -0.009 ± 0.031
6 | lMphg:sIL-10 | -0.0195 ± 0.0078 | -0.0385 ± 0.022 | -0.025 ± 0.0099 | -0.0195 ± 0.0021 | -0.0265 ± 0.084 | -0.05 ± 0.072 | -0.0035 ± 0.026 | -0.093 ± 0.044 | -0.078 ± 0.024 | -0.216 ± 0.0057 | -0.6535 ± 0.0064 | -0.042 ± 0.018 | -0.109 ± 0.048 | -0.101 ± 0.023 | -0.239 ± 0.072 | 0.0325 ± 0.016 | -0.107 ± 0.049 | -0.116 ± 0.0021
